In data set [1] the test system is acetic acid induced writhing. Put plainly: Anti-nociception, acetic acid writhing test. The data set is classed as in vivo, Fisher 344 rats. The settings on record: 0.0057 mmol/kg body weight i.p., 0.6% acetic acid. An excerpt: The animals (Fisher 344 rats), which have been bred in our laboratory, were housed under standard conditions and received a diet of commercial food pellets and water ad libitum during the maintenance but they were entirely fasted during the experiment period. Both sexes were used while females pregnant were excluded. Each group was composed of 6–15 animals. Our studies were in accordance with recognized guidelines on animal experimentation (guidelines for the care and use of laboratory animals published by the Greek Government 160/1991, based on EU regulations 86/609). Rats were kept in the Centre of the School of Veterinary Medicine (EL54 BIO42), Aristotle University of Thessaloniki, which is registered by the official state veterinary authorities (presidential degree 56/2013, in harmonization with the European Directive 2010/63/EEC). The experimental protocols were approved by the Animal Ethics Committee of the Prefecture of Central Macedonia (no. 270079/2500). In order to study the analgesic activity of the tested compound, pain is provoked with acetic acid. Three groups for each compound were used with five animals per group. We followed our previous presented method. After treatment with the tested compounds (0.0057 mmol/kg body weight; intraperitoneally) in group 1, 2nd group was used as a positive control (aspirin; 0.0057 mmol/kg body weight i.p.) and another group (3rd) served as the control in which saline was administered (negative control). After 30 min, 0.6% acetic acid (1 mL/kg body weight) was injected i.p. The number of writhes was recorded for each animal every 5 min during a subsequent 30 min period.

Data set [2] can be described thus: Inhibition of linoleic acid lipid peroxidation (AAPH). An excerpt: Azo compounds, like AAPH, generating free radicals through spontaneous thermal decomposition are useful for in vitro studies of free radical production. Production of conjugated diene hydroperoxide by oxidation of sodium linoleate in an aqueous solution is monitored at 234 nm. This assay can be used to follow oxidative changes and to understand the contribution of each tested compound. […] It seems that the presence of moiety Ar (Scheme 1) is mainly correlated with the antioxidant result. The nature of the heteroatom O/S in Ar substituent in the 5-membered oxazolone ring (compounds 2c and 2e) influences the biological response. The replacement of the thienyl group in 2c by a furyl group (2e) leads to a 31% decrease of the antioxidant ability.
(§1) Each in vitro experiment was performed at least in triplicate and the standard deviation of absorbance was less than 10% of the mean. For the in vitro assays, a stock solution (1% DMSO in the appropriate buffer with the tested compound diluted under sonification) was prepared from which several dilutions were made with the appropriate buffer.
The AAPH-induced oxidation of linoleic acid measures the ability of an antioxidant to prevent oxidation of linoleic acid sodium salt induced by alkylperoxyl radicals, generated from the water soluble azo compound 2,2′-azobis(2-amidinopropane) dihydrochloride (AAPH). The assay was performed according to our previous publications. Trolox was used as reference compound.

In the next data set the target is T1, soybean lipoxygenase (Glycine max, UniProt P08170).
T1 construct: purchased Sigma Chemical, Co. (St. Louis, MO, USA)
T1 sequence (P08170 1-839): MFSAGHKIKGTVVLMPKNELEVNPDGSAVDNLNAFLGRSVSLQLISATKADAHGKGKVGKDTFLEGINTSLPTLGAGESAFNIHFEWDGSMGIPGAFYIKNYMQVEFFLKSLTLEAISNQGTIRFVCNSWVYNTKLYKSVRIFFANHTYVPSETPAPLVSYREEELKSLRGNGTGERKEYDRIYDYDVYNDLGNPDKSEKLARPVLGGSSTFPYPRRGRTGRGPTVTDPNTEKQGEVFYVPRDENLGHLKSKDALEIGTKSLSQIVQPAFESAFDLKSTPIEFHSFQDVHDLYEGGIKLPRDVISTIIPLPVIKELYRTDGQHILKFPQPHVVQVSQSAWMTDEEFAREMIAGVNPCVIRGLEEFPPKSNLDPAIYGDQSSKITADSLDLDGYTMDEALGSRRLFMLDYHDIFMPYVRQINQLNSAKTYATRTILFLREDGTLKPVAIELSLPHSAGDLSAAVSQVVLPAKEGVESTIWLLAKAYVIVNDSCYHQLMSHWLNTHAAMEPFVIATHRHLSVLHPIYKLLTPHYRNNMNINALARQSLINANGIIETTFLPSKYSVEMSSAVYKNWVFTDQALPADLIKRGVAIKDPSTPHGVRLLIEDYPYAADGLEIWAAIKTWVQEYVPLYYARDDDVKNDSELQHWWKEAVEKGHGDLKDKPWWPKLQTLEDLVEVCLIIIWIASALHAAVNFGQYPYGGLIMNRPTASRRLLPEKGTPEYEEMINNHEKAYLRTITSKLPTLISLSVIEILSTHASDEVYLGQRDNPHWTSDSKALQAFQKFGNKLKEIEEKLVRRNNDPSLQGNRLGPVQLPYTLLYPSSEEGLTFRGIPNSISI
Put plainly: Soybean lipoxygenase inhibition study. Type of data set: biochemical. The settings on record: for inhibition at 100 µM: read-out: LOX % inhibition 100 μM; for IC50: soybean lipoxygenase, sodium linoleate 0.1 mM, read-out: LOX IC50. The protocol: For the in vitro assays, a stock solution (1% DMSO in the appropriate buffer with the tested compound diluted under sonification) was prepared from which several dilutions were made with the appropriate buffer. DMSO solution of the tested compound (stock solutions 10 mM) was incubated with sodium linoleate (0.1 mM) and 0.2 mL of soybean lipoxygenase solution (1/9 × 10^−4 w/v in saline) at room temperature. The test follows our previous published methods. […] Several concentrations were used to determine the IC50.

For the next data set, the target named is T2, trypsin (Bos taurus, UniProt P00760).
T2 sequence (P00760 24-246): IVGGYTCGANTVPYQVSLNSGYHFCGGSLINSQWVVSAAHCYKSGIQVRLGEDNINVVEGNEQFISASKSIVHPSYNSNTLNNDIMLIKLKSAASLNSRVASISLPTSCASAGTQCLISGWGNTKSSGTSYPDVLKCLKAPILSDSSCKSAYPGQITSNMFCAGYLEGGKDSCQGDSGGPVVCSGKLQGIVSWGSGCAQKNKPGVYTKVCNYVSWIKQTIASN
Put plainly: Inhibition of trypsin induced proteolysis. Type of data set: biochemical. The protocol: as §1
The tested compounds (10 µL) were dissolved in DMSO (final concentration 100 µM), with phosphate buffer (pH = 7.6) to give 0.005–0.1 mM solutions, and 100 µL trypsin (1 mg/10 mL) were preincubated at 37 °C for 30 min. Then, 200 µL of albumin (6 mg in 3 mL of distilled water) was added and incubated again at 37 °C for 24 h. After the incubation 1 mL trichloroacetic acid (5% w/w) was added to terminate the reaction. The mixture is centrifugated, the water layer is collected and monitored at 280 nm.

The next data set deals with mushroom tyrosinase (Agaricus bisporus, UniProt C7FF04). Description: Tyrosinase inhibition assay. Type of data set: biochemical. Particulars: L-Dopa substrate, read-out: ΤyrI% 100 μM (inhibition of mushroom tyrosinase). On the procedure:
For the in vitro assays, a stock solution (1% DMSO in the appropriate buffer with the tested compound diluted under sonification) was prepared from which several dilutions were made with the appropriate buffer.

Data set [3] deals with carrageenin-induced rat paw edema. Put plainly: Inhibition of the carrageenin-induced rat paw edema. The data set is classed as in vivo, Fisher 344 rats. The settings on record: 0.0057 mmol/kg body weight i.p., 3.5 h after carrageenin. The protocol:
For the estimation of anti-inflammatory potential of the tested compounds the rat carrageenin induced paw edema assay was employed as a model for acute inflammation. Indomethacin, as a reference drug, and our compounds were administered intraperitoneally in order to ensure systemic response via fast bioavailability, while carrageenin’s intradermal administration, as inflammatory agent, aimed to local response. The development of the edema induced by carrageenin has been described as a biphasic event. The early phase of the inflammatory response, lasting 0.5–1.5 h, is chiefly mediated by histamine and serotonin release inducing hyperalgesia, swelling and redness, while the later phase, lasting 3–6 h, is sustained presumably by prostaglandin release. This model reliably predicts the anti-inflammatory efficacy of the NSAIDs during the second phase, since non-steroidal anti-inflammatory drugs (NSAIDs) present weak activity in the first phase. Therefore, using this protocol we could evaluate our compounds as potential anti-inflammatory agents, as a result of inhibition of prostaglandin amplification.
The animals (Fisher 344 rats), which have been bred in our laboratory, were housed under standard conditions and received a diet of commercial food pellets and water ad libitum during the maintenance but they were entirely fasted during the experiment period. Both sexes were used while females pregnant were excluded. Each group was composed of 6–15 animals. Our studies were in accordance with recognized guidelines on animal experimentation (guidelines for the care and use of laboratory animals published by the Greek Government 160/1991, based on EU regulations 86/609). […]
Edema was induced in the right hind paw of the rats by the intradermal injection of 0.1 mL 2% carrageenin in water we followed our previous published method. […] The change in paw weight was compared with that in control animals (treated with water) and expressed as a percent inhibition of the edema CPE % values. […]

Molecules are shown by their SMILES. “And” between values parts separate entries of the source, which are not always exact repeats. Equal values may be shown once. Marks after values point to notes of the source that are not given here.

Experimental findings from publication PMC7397336, “5-(4H)-Oxazolones and Their Benzamides as Potential Bioactive Small Molecules” (Molecules, 2020) are described below.

mushroom tyrosinase, sequence (G1K3P4 entry or part of it): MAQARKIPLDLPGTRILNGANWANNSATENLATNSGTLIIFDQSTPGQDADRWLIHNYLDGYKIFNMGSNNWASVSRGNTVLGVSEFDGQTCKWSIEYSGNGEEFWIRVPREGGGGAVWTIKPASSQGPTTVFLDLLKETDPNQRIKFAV
mushroom tyrosinase, sequence (C7FF04 1-392): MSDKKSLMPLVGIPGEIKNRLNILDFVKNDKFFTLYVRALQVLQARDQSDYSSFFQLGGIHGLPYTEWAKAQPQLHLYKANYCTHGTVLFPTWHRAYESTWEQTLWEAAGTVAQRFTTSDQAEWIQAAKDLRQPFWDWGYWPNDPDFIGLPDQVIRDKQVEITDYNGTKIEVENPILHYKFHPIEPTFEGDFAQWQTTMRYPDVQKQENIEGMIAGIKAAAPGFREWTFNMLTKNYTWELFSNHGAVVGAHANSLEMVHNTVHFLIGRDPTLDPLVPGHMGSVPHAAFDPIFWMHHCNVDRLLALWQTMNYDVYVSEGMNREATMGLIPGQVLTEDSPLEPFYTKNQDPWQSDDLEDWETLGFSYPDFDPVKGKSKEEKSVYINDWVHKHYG

As for `CC(=O)Oc1ccccc1C(=O)O` [Aspirin, aspirin, reference compound], in data set [1], the “Writhing Inhibition (%)” value is recorded as 77%.
In the case of `O=C(N/C(=C\c1ccccc1)C(=O)N1CCOCC1)c1ccccc1` [Compound 3a, (Z)-N-(3-morpholino-3-oxo-1-phenylprop-1-en-2-yl)benzamide], the melting point was 135 to 138 °C. Besides, the “AAPH% 100 µM (anti-lipid peroxidation)” value in data set [2] came to 69%. Further, at soybean lipoxygenase, the inhibition at 100 µM is less than 50% and the half-maximal inhibitory concentration (IC50) was determined as 100 µM. In addition, the “Iptr% 10 µM (% trypsin inhibition)” value on trypsin was “no”.
Consider `O=C(N/C(=C\c1ccccc1)C(=O)N1CCN(C(=O)/C(=C/c2ccccc2)NC(=O)c2ccccc2)CC1)c1ccccc1` [Compound 4a, N,N′-((1Z,1′Z)-piperazine-1,4-diylbis(3-oxo-1-phenylprop-1-ene-3,2-diyl))bisbenzamide], for which the melting point is 265 to 268 °C. Moreover, in data set [2], the “AAPH% 100 µM (anti-lipid peroxidation)” value is listed as 82%. Besides, the inhibition at 100 µM on soybean lipoxygenase came out at 36%. Also, the inhibition at 100 µM on mushroom tyrosinase is 33%. In data set [3], the “CPE (%) inhibition of carrageenin-induced rat paw edema” value is 44 * % and 44%. For the same molecule, in data set [1], the “Writhing Inhibition (%)” value was 32%.
For `O=C(N/C(=C\c1cccs1)C(=O)N1CCN(C(=O)/C(=C/c2cccs2)NC(=O)c2ccccc2)CC1)c1ccccc1` [Compound 4c, N,N′-((1Z,1′Z)-piperazine-1,4-diylbis(3-oxo-1-(thiophen-2-yl)prop-1-ene-3,2-diyl))bisbenzamide], the melting point was 292 to 294 °C. Besides, the “AAPH% 100 µM (anti-lipid peroxidation)” value in data set [2] is on record as 93%. Further, the half-maximal inhibitory concentration (IC50) on soybean lipoxygenase was 41 µM. Besides, the inhibition at 100 µM on mushroom tyrosinase amounted to 42%. The “CPE (%) inhibition of carrageenin-induced rat paw edema” value in data set [3] was 56 ** % and 56%. Moreover, the “Writhing Inhibition (%)” value in data set [1] came out at 58%.
